Numbers after ± are expanded uncertainties.
Experiment: xn = mol fraction of the nth substance listed
Details: 101 kPa, Liquid; for viscosity: Capillary tube (Ostwald / Ubbelohde) method; for speed of sound: Sing-around technique in a fixed-path interferometer; for mass density: Vibrating tube method

CC1CCCC1 [methylcyclopentane] + CC(C)=O
Details	mass density, 293.15 K [kg/m3]	mass density, 298.15 K [kg/m3]	mass density, 303.15 K [kg/m3]	speed of sound, 293.15 K [m/s]	speed of sound, 298.15 K [m/s]	speed of sound, 303.15 K [m/s]	viscosity, 293.15 K [mPa·s]	viscosity, 298.15 K [mPa·s]	viscosity, 303.15 K [mPa·s]
x1 = 0.05	785.97 ± 0.21	780.3 ± 0.21	774.59 ± 0.21	1177 ± 2	1155 ± 2	1132 ± 2	0.323 ± 0.007	0.308 ± 0.007	0.294 ± 0.006
x1 = 0.0985	781.33 ± 0.29	775.71 ± 0.29	770.04 ± 0.29	1171 ± 2	1148 ± 2	1126 ± 2	0.323 ± 0.007	0.308 ± 0.007	0.294 ± 0.006
x1 = 0.2004	773.02 ± 0.47	767.49 ± 0.47	761.9 ± 0.47	1162 ± 2	1139 ± 2	1116 ± 2	0.333 ± 0.007	0.317 ± 0.007	0.302 ± 0.007
x1 = 0.3009	766.13 ± 0.65	760.68 ± 0.65	755.18 ± 0.65	1157 ± 3	1134 ± 3	1111 ± 3	0.347 ± 0.008	0.33 ± 0.008	0.316 ± 0.007
x1 = 0.4024	760.79 ± 0.84	755.43 ± 0.83	750.02 ± 0.83	1156 ± 3	1133 ± 3	1110 ± 3	0.361 ± 0.009	0.344 ± 0.008	0.328 ± 0.008
x1 = 0.5029	756.32 ± 1	751.06 ± 1	745.74 ± 1	1157 ± 3	1134 ± 3	1111 ± 3	0.378 ± 0.009	0.359 ± 0.009	0.341 ± 0.009
x1 = 0.6052	752.71 ± 1.2	747.55 ± 1.2	742.34 ± 1.2	1161 ± 4	1137 ± 4	1114 ± 4	0.396 ± 0.01	0.375 ± 0.01	0.355 ± 0.009
x1 = 0.7112	749.82 ± 1.4	744.77 ± 1.4	739.67 ± 1.4	1166 ± 4	1143 ± 4	1120 ± 4	0.418 ± 0.012	0.395 ± 0.011	0.374 ± 0.01
x1 = 0.8139	747.82 ± 1.6	742.89 ± 1.6	737.92 ± 1.6	1174 ± 5	1151 ± 5	1127 ± 5	0.438 ± 0.013	0.415 ± 0.012	0.393 ± 0.012
x1 = 0.9084	746.75 ± 1.8	741.94 ± 1.8	737.09 ± 1.8	1184 ± 5	1161 ± 5	1137 ± 5	0.467 ± 0.015	0.442 ± 0.014	0.418 ± 0.013
x1 = 0.954	746.58 ± 1.9	741.83 ± 1.9	737.04 ± 1.9	1190 ± 5	1167 ± 5	1143 ± 5	0.482 ± 0.015	0.457 ± 0.015	0.432 ± 0.014
x1 = 1	746.64 ± 2	741.94 ± 2	737.21 ± 1.9	1197 ± 5	1174 ± 5	1150 ± 5	0.504 ± 0.016	0.476 ± 0.016	0.45 ± 0.015

CC1CCCC1 [methylcyclopentane] + CCC(C)=O
Details	mass density, 293.15 K [kg/m3]	mass density, 298.15 K [kg/m3]	mass density, 303.15 K [kg/m3]	speed of sound, 293.15 K [m/s]	speed of sound, 298.15 K [m/s]	speed of sound, 303.15 K [m/s]	viscosity, 293.15 K [mPa·s]	viscosity, 298.15 K [mPa·s]	viscosity, 303.15 K [mPa·s]
x1 = 0.048	800.42 ± 0.31	795.21 ± 0.31	789.96 ± 0.31	1208 ± 2	1187 ± 2	1165 ± 2	0.397 ± 0.009	0.378 ± 0.008	0.36 ± 0.008
x1 = 0.0982	795.99 ± 0.4	790.8 ± 0.4	785.57 ± 0.39	1203 ± 2	1181 ± 2	1160 ± 2	0.396 ± 0.009	0.376 ± 0.008	0.358 ± 0.008
x1 = 0.1942	787.99 ± 0.56	782.84 ± 0.56	777.64 ± 0.56	1195 ± 3	1173 ± 3	1151 ± 3	0.397 ± 0.009	0.377 ± 0.008	0.358 ± 0.008
x1 = 0.2911	780.72 ± 0.73	775.6 ± 0.73	770.44 ± 0.72	1188 ± 3	1166 ± 3	1144 ± 3	0.402 ± 0.009	0.383 ± 0.009	0.364 ± 0.008
x1 = 0.398	773.4 ± 0.92	768.32 ± 0.91	763.2 ± 0.9	1183 ± 3	1161 ± 3	1139 ± 3	0.408 ± 0.01	0.386 ± 0.009	0.367 ± 0.009
x1 = 0.5036	766.98 ± 1.1	761.95 ± 1.1	756.87 ± 1.1	1181 ± 4	1158 ± 4	1136 ± 4	0.416 ± 0.011	0.394 ± 0.01	0.374 ± 0.009
x1 = 0.6033	761.6 ± 1.3	756.62 ± 1.3	751.6 ± 1.3	1180 ± 4	1157 ± 4	1135 ± 4	0.427 ± 0.011	0.404 ± 0.011	0.383 ± 0.01
x1 = 0.6993	757.02 ± 1.4	752.08 ± 1.4	747.11 ± 1.4	1181 ± 4	1158 ± 4	1135 ± 4	0.439 ± 0.012	0.415 ± 0.012	0.394 ± 0.011
x1 = 0.8045	752.53 ± 1.6	747.68 ± 1.6	742.78 ± 1.6	1184 ± 5	1161 ± 5	1138 ± 5	0.455 ± 0.013	0.431 ± 0.013	0.409 ± 0.012
x1 = 0.906	749.02 ± 1.8	744.24 ± 1.8	739.42 ± 1.8	1189 ± 5	1166 ± 5	1143 ± 5	0.475 ± 0.015	0.448 ± 0.014	0.425 ± 0.013
x1 = 0.9517	747.8 ± 1.9	743.03 ± 1.9	738.24 ± 1.9	1193 ± 5	1169 ± 5	1146 ± 5	0.487 ± 0.016	0.46 ± 0.015	0.436 ± 0.014
x1 = 1	746.64 ± 2	741.94 ± 2	737.21 ± 1.9	1197 ± 5	1174 ± 5	1150 ± 5	0.504 ± 0.016	0.476 ± 0.016	0.45 ± 0.015

CC1CCCC1 [methylcyclopentane] + CCCC(C)=O
Details	mass density, 293.15 K [kg/m3]	mass density, 298.15 K [kg/m3]	mass density, 303.15 K [kg/m3]	speed of sound, 293.15 K [m/s]	speed of sound, 298.15 K [m/s]	speed of sound, 303.15 K [m/s]	viscosity, 293.15 K [mPa·s]	viscosity, 298.15 K [mPa·s]	viscosity, 303.15 K [mPa·s]
x1 = 0.0493	802.59 ± 0.31	797.76 ± 0.31	792.9 ± 0.31	1228 ± 2	1207 ± 2	1187 ± 2	0.49 ± 0.011	0.462 ± 0.01	0.439 ± 0.009
x1 = 0.0981	798.89 ± 0.4	794.06 ± 0.4	789.19 ± 0.39	1224 ± 2	1203 ± 2	1182 ± 2	0.485 ± 0.011	0.459 ± 0.01	0.434 ± 0.009
x1 = 0.1993	791.61 ± 0.57	786.76 ± 0.57	781.89 ± 0.57	1216 ± 3	1194 ± 3	1173 ± 3	0.479 ± 0.011	0.452 ± 0.01	0.43 ± 0.01
x1 = 0.3038	784.4 ± 0.76	779.56 ± 0.75	774.7 ± 0.75	1207 ± 3	1185 ± 3	1164 ± 3	0.473 ± 0.011	0.449 ± 0.01	0.425 ± 0.01
x1 = 0.3972	778.23 ± 0.92	773.38 ± 0.91	768.51 ± 0.91	1201 ± 3	1179 ± 3	1157 ± 3	0.47 ± 0.011	0.444 ± 0.011	0.421 ± 0.01
x1 = 0.5007	771.75 ± 1.1	766.91 ± 1.1	762.04 ± 1.1	1196 ± 4	1174 ± 4	1152 ± 4	0.469 ± 0.012	0.444 ± 0.011	0.42 ± 0.011
x1 = 0.6069	765.58 ± 1.3	760.74 ± 1.3	755.87 ± 1.3	1193 ± 4	1171 ± 4	1148 ± 4	0.468 ± 0.012	0.442 ± 0.012	0.419 ± 0.011
x1 = 0.6989	760.33 ± 1.4	755.52 ± 1.4	750.68 ± 1.4	1191 ± 4	1168 ± 4	1146 ± 4	0.47 ± 0.013	0.444 ± 0.012	0.422 ± 0.012
x1 = 0.8052	754.83 ± 1.6	750.05 ± 1.6	745.24 ± 1.6	1190 ± 5	1168 ± 5	1145 ± 5	0.477 ± 0.014	0.451 ± 0.013	0.427 ± 0.013
x1 = 0.9039	750.38 ± 1.8	745.64 ± 1.8	740.86 ± 1.8	1193 ± 5	1170 ± 5	1147 ± 5	0.487 ± 0.015	0.458 ± 0.014	0.433 ± 0.013
x1 = 0.9508	748.6 ± 1.9	743.88 ± 1.9	739.12 ± 1.9	1195 ± 5	1172 ± 5	1148 ± 5	0.493 ± 0.016	0.466 ± 0.015	0.44 ± 0.014
x1 = 1	746.64 ± 2	741.94 ± 2	737.21 ± 1.9	1197 ± 5	1174 ± 5	1150 ± 5	0.504 ± 0.016	0.476 ± 0.016	0.45 ± 0.015

Reference: the NIST ThermoML archive (doi:10.1016/j.jct.2005.08.002)
